# Measured values reported in US6303596A, “Use of taurolidine for treatment of leukemias” (priority 2000, dated 2001).
# Key:
# [1] = test system: K-562; test: LDH release (cell membrane integrity), K-562; assay type: cell-based; settings: Homo sapiens, K562, 4 h, read-out: LDH (% of total)
# Description: (§1) FIGS. 6A and 6B depict cell viability and growth rates for K562 cell line following taurolidine treatment, in terms of % trypan blue negative cells and % cell number, respectively. Cells were treated with various concentrations of taurolidine for 4 hours in AIM-V+0.01% BCS. After aliquots were collected for LDH assay, the remainder of the culture was rinsed in HBSS and resuspended in RPMI+10% BCS without taurolidine. Counts of trypan blue-negative cells (FIG. 6A), and total cell number (FIG. 6B), were recorded daily thereafter (with the measurement at Day 1 being made immediately after the 4 hour taurolidine treatment). Conditions were: no treatment (open circles); 25 μg/ml taurolidine (closed circles); 50 μg/ml taurolidine (open squares); 100 μg/ml taurolidine (closed squares); and vehicle alone (closed triangles). Doubling times were determined under each condition, and expressed as a percentage of the rate of doubling of untreated cells. […]
# (§2) In these experiments, integrity of cell membranes following taurolidine treatment was assessed by exclusion of trypan blue and by measuring the release of LDH in MM6, K-562, HL-60, and REH cells. […] A parallel aliquot of cells was lysed by three cycles of freeze/thaw and the quantity of LDH released was taken to be 100%. […]
# ^a LDH was measured immediately after four hour taurolidine treatment.
# [2] = test system: K562 cells; test: trypan blue exclusion, K562; assay type: cell-based, human; settings: K562, 25 μg/ml taurolidine
# Description: as §1, with “Conditions were: no treatment (open circles); 25 μg/ml taurolidine (closed circles); 50 μg/ml taurolidine (open squares); 100 μg/ml taurolidine (closed squares); and vehicle alone (closed triangles).” left out
# as §2
# HL-60 cells treated with 50 μl taurolidine. In these samples, LDH present in the culture medium was 8.3±2.3% of that released by completely lysed cells, compared with 2.3±0.8% measured in control cultures. […]
# [3] = test system: ECV304 (endothelial cells); test: growth rate (proliferation) after taurolidine treatment, ECV304; assay type: cell-based, human; settings: ECV304, 50 and 100 μg/ml taurolidine
# Description: as §1, with “10A” for “6A”, “10B” for “6B”, “ECV304” for “K562”, “10A),” for “6A),”, “10B),” for “6B),”, “cells. These values are located to the right of the growth curves in (FIG. 10B).” for “cells.”
# HL-60 cells treated with 50 μl taurolidine. In these samples, LDH present in the culture medium was 8.3±2.3% of that released by completely lysed cells, compared with 2.3±0.8% measured in control cultures. […] After 4 hour treatment, cells were rinsed and returned to growth medium and monitored for viability and growth over the following 3 days. […]
# [4] = test system: REH; test: TUNEL / propidium iodide flow cytometry, REH; assay type: cell-based, human
# Description: (§3) In the second method, DNA fragmentation was detected via TUNEL assay according to the manufacturer's instructions. With this methodology, 2×10^6 cells were fixed with 2% paraformaldehyde, permeabilized with 0.1% Triton X-100/0.1% citrate, incubated at 37° C. with terminal deoxynucleotidyl transferase and FITC-dUTP, rinsed and analyzed by flow cytometry. Enhanced FITC signal indicates apoptosis-specific DNA fragmentation. Gavriali, et al, "Identification of programmed cell death in situ via specific labeling of nuclear DNA fragmentation," J Cell Biol 119:493 (1992). Parallel aliquots of unfixed cells were treated with PI and FITC-conjugated anti-CD14 and analyzed by flow cytometry, in order to identify cells with permeable cell membranes (since PI binds to DNA but is excluded from cells with intact plasma membranes) and also to determine the cell-specificity of the apoptotic signal.
# (§4) In another study, TUNEL assays were performed on all cell lines 6 hours after cells were initially exposed to taurolidine (cells were treated for 4 hours, rinsed, and then incubated for 2 more hours before TUNEL assay was performed).
# (§5) . Taurolidine and anisomycin induced apoptosis in MM6, HL-60, and Jurkat cells (Table VIII). MM6 and HL-60 cells were similarly effected, with >80% TUNEL-positive cells after 6 hours. Jurkat cells were less sensitive, with approximately 50% of cells induced to undergo apoptosis after taurolidine treatment. After 6 hours, 73% of anisomycin-treated REH cells were apoptotic, with less than 20% of taurolidine-treated REH cells being TUNEL-positive. However, assay of cells 24 hours after
# ^a Analysis by flow cytometry after staining cells with propidium
# iodide and processing for TUNEL.
# Data are percent of total cell-size events, and are expressed as mean ±
# Cells were treated for 4 hours with taurolidine (100 μg/ml) or
# anisomycin (1 μg/ml), and then assayed at 6 hours.
# Data are percent of total cell-sized events, and are expressed as mean ±
# anisomycin (1 μg/ml), and then assayed at 24 hours.
# [5] = test system: ECV304; test: TUNEL / propidium iodide flow cytometry, ECV304; assay type: cell-based, human; settings: ECV304, 6 hours after treatment
# Description: as §3, §4
# . Taurolidine and anisomycin induced apoptosis in MM6, HL-60, and Jurkat cells (Table VIII). MM6 and HL-60 cells were similarly effected, with >80% TUNEL-positive cells after 6 hours. […]
# Data are percent of total cell-size events, and are expressed as mean ± […]
# [6] = test system: all cells tested; test: apoptogenic efficiency in all cells tested; assay type: cell-based, human
# Description: as §4
# as §5, with “hours after […]” for “hours after”
smiles,measurement,setting,value
"O=S1(=O)CCN(CN2CCS(=O)(=O)NC2)CN1 [taurolidine, 4,4'-methylenebis(perhydro-1,2,4-thiadiazin 1,1-dioxide)]",cytotoxicity at 50 µg/mL,"[1]; K-562, 50 μg/ml",6%
same,cytotoxicity at 100 µg/mL,"[1]; K-562, 100 μg/ml",8%
same,trypan blue staining after treatment,[2],did not show an increase in trypan blue staining
same,proliferation after treatment,[3],inhibited proliferation
same,rate of apoptosis induction versus anisomycin,[4],less rapidly than with anisomycin treatment
same,% TUNEL-positive,"[4]; taurolidine 100 μg/ml or anisomycin 1 μg/ml for 4 h, assayed at 24 hours, mean ± SD",81.4 ± 4.4%
same,DNA fragmentation (TUNEL positivity),[5],did not demonstrate evidence for fragmentation of DNA
same,apoptogenic efficiency versus anisomycin,[6],as efficient an apoptogenic agent as the protein synthesis inhibitor anisomycin
